Assay results published in patent US6245817A, “NPY5 receptor antagonists and methods for using same” (Bayer Corporation, priority 1999, dated 2001).
Where a name gives a salt, the structure may show the parent alone.

Key:
[1] = target: T1, Human NPY2 receptor (Homo sapiens, UniProt P49146); assay: Human NPY2 Receptor Binding Assay; conditions: [125I]PYY; read-out: hPPY2 IC50
T1 sequence (P49146 1-381): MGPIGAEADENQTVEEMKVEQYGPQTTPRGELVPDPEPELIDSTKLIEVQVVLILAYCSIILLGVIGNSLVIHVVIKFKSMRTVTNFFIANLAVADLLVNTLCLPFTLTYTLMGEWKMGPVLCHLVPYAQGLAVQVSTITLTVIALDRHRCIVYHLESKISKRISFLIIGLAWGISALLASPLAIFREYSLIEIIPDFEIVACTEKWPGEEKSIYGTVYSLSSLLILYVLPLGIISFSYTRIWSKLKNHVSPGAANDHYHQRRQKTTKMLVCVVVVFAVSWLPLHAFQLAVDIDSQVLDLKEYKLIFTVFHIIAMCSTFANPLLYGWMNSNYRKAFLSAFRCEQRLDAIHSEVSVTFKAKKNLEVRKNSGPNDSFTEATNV

[2] = target: Human NPY4/PP1 receptor (Homo sapiens, UniProt P50391); assay: Human NPY4/PP1 Receptor Binding Assay; conditions: [125I]human PP; read-out: hNPY4 IC50
Human NPY4/PP1 receptor, sequence (P50391 whole entry): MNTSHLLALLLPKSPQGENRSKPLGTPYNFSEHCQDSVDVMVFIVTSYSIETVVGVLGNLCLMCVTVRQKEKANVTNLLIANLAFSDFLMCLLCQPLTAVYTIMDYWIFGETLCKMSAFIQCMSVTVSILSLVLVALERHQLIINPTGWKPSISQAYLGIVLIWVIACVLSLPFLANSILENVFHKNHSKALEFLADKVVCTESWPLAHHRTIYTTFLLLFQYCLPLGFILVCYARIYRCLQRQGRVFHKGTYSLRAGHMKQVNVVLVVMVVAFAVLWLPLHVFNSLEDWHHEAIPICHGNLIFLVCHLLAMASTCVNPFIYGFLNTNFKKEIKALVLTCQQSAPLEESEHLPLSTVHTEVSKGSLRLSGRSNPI

[3] = target: T2, Human NPY5 Receptor (Homo sapiens, UniProt Q15761); assay: Human NPY5 Receptor Binding Assay; conditions: [125I]PYY; read-out: hNPY5 IC50
T2 sequence (Q15761 1-445): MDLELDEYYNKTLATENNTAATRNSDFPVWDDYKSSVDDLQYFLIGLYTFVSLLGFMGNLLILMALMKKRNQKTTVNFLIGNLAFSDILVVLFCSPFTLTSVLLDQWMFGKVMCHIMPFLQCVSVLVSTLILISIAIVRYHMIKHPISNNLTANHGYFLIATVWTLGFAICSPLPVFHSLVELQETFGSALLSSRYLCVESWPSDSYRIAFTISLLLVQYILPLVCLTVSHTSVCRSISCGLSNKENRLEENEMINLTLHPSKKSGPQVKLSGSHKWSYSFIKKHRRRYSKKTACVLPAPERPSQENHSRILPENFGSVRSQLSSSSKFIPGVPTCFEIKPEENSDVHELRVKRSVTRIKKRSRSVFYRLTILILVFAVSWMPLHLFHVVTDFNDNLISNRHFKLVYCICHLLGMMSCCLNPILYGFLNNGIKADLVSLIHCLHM
Experimental: Human and Rat NPY5 Receptor Binding Assays
Binding assays are performed on GF/C Millipore 96-well plates pretreated with 0.02% polyethylenimine. The binding buffer is 25 mM Tris, 120 mM NaCl, 5 mM KCl, 1.2 mM KH2 PO4, 2.5 mM CaCl2, 1.2 mM MgSO4, 0.1% BSA and 0.5 mg/ml bacitracin, pH 7.4. Samples consist of membrane protein, 75-100 pM [125I]PYY (porcine, NEN-DuPont) and drug dilution. Nonspecific binding is defined by 1 μM PYY. After a 2 hour incubation at room temperature with constant mixing, the samples are aspirated on a vacuum manifold, and rinsed with ice-cold binding buffer. The amount of radioactivity in each well is quantitated with either gamma counting or liquid scintillation. IC50 values, which correspond to 50% inhibition of specific binding, are determined with non-linear regression analysis.

[4] = target: T3, Human NPY1 Receptor (Homo sapiens, UniProt P25929); assay: Human NPY1 Receptor Binding Assay; conditions: SK-N-MC cells, [125I]PYY; read-out: hNPY1 IC50
T3 sequence (P25929 1-384): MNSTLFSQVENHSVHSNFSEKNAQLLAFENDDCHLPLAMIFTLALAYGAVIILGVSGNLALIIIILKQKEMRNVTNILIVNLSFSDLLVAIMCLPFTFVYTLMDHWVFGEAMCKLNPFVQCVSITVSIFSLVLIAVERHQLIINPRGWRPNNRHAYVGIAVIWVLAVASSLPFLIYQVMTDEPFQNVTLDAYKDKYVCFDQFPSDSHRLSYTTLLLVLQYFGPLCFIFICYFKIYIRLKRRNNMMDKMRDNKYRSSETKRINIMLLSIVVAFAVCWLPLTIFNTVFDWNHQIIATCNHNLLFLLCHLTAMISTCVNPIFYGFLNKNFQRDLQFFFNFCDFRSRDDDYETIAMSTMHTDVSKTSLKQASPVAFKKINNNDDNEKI

[5] = target: T4, Rat NPY5 Receptor (Rattus norvegicus, UniProt Q63634); assay: Rat NPY5 Receptor Binding Assay; conditions: for IC50: [125I]PYY, read-out: rNPY5 IC50; for inhibition at 10 µM: values marked *, read-out: rNPY5 percent inhibition at 10 μM
T4 sequence (Q63634 1-445): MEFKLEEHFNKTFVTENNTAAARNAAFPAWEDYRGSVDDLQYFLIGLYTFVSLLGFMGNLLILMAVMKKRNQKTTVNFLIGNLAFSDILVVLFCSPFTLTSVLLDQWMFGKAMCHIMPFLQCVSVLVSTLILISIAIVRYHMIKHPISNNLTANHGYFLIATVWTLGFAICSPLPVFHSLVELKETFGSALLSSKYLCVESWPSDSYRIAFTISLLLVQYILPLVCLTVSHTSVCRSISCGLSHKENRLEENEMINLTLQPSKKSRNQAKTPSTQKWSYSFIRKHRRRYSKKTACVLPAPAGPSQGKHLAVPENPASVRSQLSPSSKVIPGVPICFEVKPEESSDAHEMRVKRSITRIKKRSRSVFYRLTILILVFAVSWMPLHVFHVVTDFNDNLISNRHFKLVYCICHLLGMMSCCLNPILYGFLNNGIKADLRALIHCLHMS

| SMILES | IC50 [1] [µM] | IC50 [2] [µM] | IC50 [3] [nM] | IC50 [4] [µM] | IC50 [5] [nM] | inhibition at 10 µM [5] [%] |
| --- | --- | --- | --- | --- | --- | --- |
| CCCCCCCCCCCc1nnc(SCC(=O)Nc2ccc(Cl)cc2)n1-c1ccccc1C(F)(F)F [Compound 178, N-(A-Chloro-phenyl)-2-[4-(2-trifluoromethyl-phenyl)-5-undecyl-4H-[1,2,4]triazol-3-ylsulfanyl]-acetamide, reference compound] | > 5 | > 5 | > 10000 | – | – | – |
| Cn1c(SCC(=O)Nc2ccc(Cl)cc2)nnc1-c1ncc(C(F)(F)F)cc1Cl [Compound 160, reference compound] | – | > 5 | > 10000 | > 5 | > 10000 | – |
| Nc1nc(O)c2[nH]c(SCC(=O)Nc3ccc(C4CCCCC4)cc3)nc2n1 [Compound 13, 2-(2-Amino-hydroxy-9H-purin-8-ylsuIfanyl)-N-(4-yclohexyl-phenyl)-acetamide] | > 5 | – | 5600 | – | – | 71 |
| CCn1c(SCC(=O)Nc2cc(C)ccc2OC)nnc1C(F)(F)F [Compound 157, N-(2-Methoxy-5-methyl-phenyl)-2-(4-ethyl-5-trifluoromethyl-4H-[1,2,4]triazol-3-ylsulfanyl)-acetamide, reference compound] | – | > 5 | > 10000 | > 5 | > 10000 | – |
| CC(C)n1c(SCC(=O)Nc2ccc(Cl)cc2)nc2cc(C(F)(F)F)ccc21 [Compound 180, N-(4-Chloro-phenyl]-2-(1-isopropyl-5-trifluoromethy-1H-benzolmidazol-2-ylsulfanyl)-acetamide, reference compound] | > 5 | > 5 | > 10000 | – | – | – |
| Cc1cc(-c2nc(C)c(-c3nnc(SCC(=O)Nc4ccc(C(C)C)cc4)n3C)s2)no1 [Compound 177, N-(4-isopropyl-phenyl)-2-(4-methyl-5-[4-methyl-2-(5-methyl-isoxazol-3-yl)-thiazol-5-yl]-4H-[1,2,4]-triazol-3-ylsulfanyl]-acetamide, reference compound] | > 5 | > 5 | > 10000 | – | – | – |
| CCCCCn1c(O)nnc1SCC(=O)Nc1ccc(Cl)cc1 [Compound 181, N-(4-Chloro-phenyl)-2-(5-hydroxy-4-pentyl-4H-[1,2,4]triazo-3-ylsulfanyl)-acetamide, reference compound] | > 5 | > 5 | > 10000 | – | – | – |
| Nc1nc(O)c2[nH]c(SCC(=O)Nc3ccc(C(=O)c4ccccc4)cc3)nc2n1 [Compound 14, 2-(2-Amino-hydroxy-9H-purin-ylsulfanyl)-N-(4-benzoyl-phenyl)-acetamide] | > 5 | – | > 10000 | – | – | 51 |
| O=C(CSc1nc(-c2ccccc2)c(-c2ccccc2)[nH]1)Nc1ccc(C2CCCCC2)cc1 [Compound 15, N-(4-Cyclohexyl-phenyl)-2-(4,5-diphenyl-1H-imidazol-2-ylsulfanyl)-acetamide] | > 5 | – | 9800 | – | – | 66 |
| O=C(CSc1ncc[nH]1)Nc1ccc(C2CCCCC2)cc1 [Compound 136, N-(4-Cyclohexyl-phenyl)-2-(1H-imidazol-2-ylsulfanyl)-acetamide] | > 5 | – | 110 | – | – | 95 |
| O=C(CSc1nc2ccccc2[nH]1)Nc1ccc(C(=O)c2ccccc2)cc1 [Compound 12, 2-(1H-Benzoimidazol-2-ylsulfanyl)-N-(4-benzoyl-phenyl)-acetamide] | > 5 | – | 480 | – | – | 95 |
| Cc1ccc(SCC(=O)Nc2ccc(C3CCCCC3)cc2)cc1 [Compound 183, reference compound] | > 5 | > 5 | 1300 | – | 1200 | – |
| O=C(CSc1nc(-c2ccccc2)c(-c2ccccc2)[nH]1)Nc1ccc(C(=O)c2ccccc2)cc1 [Compound 16, N-(4-Benzoyl-phenyl)-2-(4,5-diphenyl-1H-imidazol-2-ylsulfanyl)-acetamide] | > 5 | – | 3600 | – | – | 80 |
| Nc1nc(SCC(=O)Nc2ccc(C(=O)c3ccccc3)cc2)nc(O)c1N=O [Compound 70, 2-(4-Amino-hydroxy-nitroso-pyrimidin-2-ylsulfanyl)-N-(4-benzoyl-phenyl)-acetamide] | > 5 | – | > 10000 | – | – | – |
| CCCCCCCCCCCc1nnc(SCC(=O)Nc2ccc(C(C)C)cc2)n1-c1ccccc1C(F)(F)F [Compound 179, reference compound] | > 5 | > 5 | > 10000 | – | – | – |
| Nc1nc(SCC(=O)Nc2ccc(C3CCCCC3)cc2)c2[nH]cnc2n1 [Compound 58, 2-(2-Amino-7H-purin-ylsulfanyl)-N-(4-cyclohexyl-phenyl)-acetamide] | > 5 | – | > 1000 | – | – | – |
| Cc1ccnc(SCC(=O)Nc2ccc(C(=O)c3ccccc3)cc2)n1 [Compound 30, N-(4-Benzoyl-phenyl)-2-(4-methyl-pyrimidin-2-ylsulfanyl)-acetamide] | > 5 | – | 480 | – | – | – |
| O=C(CSc1ccccn1)Nc1ccc(C(=O)c2ccccc2)cc1 [Compound 44, N-(4-Benzoyl-phenyl)-2-(pyridin-2-ylsulfanyl)-acetamide] | > 5 | – | 320 | – | – | – |
| Nc1nnc(SCC(=O)Nc2ccc(C(=O)c3ccccc3)cc2)s1 [Compound 61] | > 5 | – | 510 | – | – | – |
| O=C(CSc1nc2ccccc2o1)Nc1ccc(C2CCCCC2)cc1 [Compound 38, 2-(Benzooxazol-2-ylsulfanyl)-N-(-Cyclohexyl-phenyl)-acetamide] | > 5 | – | > 10000 | – | – | – |
| CC(=O)Nc1ccc(SCC(=O)Nc2ccc(C3CCCCC3)cc2)cc1 [Compound 54] | > 5 | – | 2000 | – | – | – |
| Cc1ccnc(SCC(=O)Nc2ccc(C3CCCCC3)cc2)n1 [Compound 5, N-(4-Cyclohexyl-phenyl)-2-(4-methyl-pyrimidin-2-ylsultanyl)-acetamide Hydrochloride] | > 5 | > 5 | – | – | > 1000 | – |
| Cc1ccc2[nH]c(SCC(=O)Nc3ccc(C(=O)c4ccccc4)cc3)nc2c1 [Compound 22, N-(4-Benzoyl-phenyl)-2-(5-methyl-1H-benzolmidazol-2-ylsulfanyl)-acetamide] | > 5 | – | 310 | – | – | – |
| O=C(CSc1nc2ccccc2[nH]1)Nc1ccc(C2CCCCC2)cc1 [Compound 11, 2-(1H-Benzoimidazol-2-ylsulfanyl)-N-(4-cyclohexyl-phenyl)-acetamide] | > 5 | – | 500 | – | – | 95 |
| Cn1ccnc1SCC(=O)Nc1ccc(C(=O)c2ccccc2)cc1 [Compound 9] | > 5 | – | 440 | – | – | 93 |
| CCOc1ccc2nc(SCC(=O)Nc3ccc(C(=O)c4ccccc4)cc3)sc2c1 [Compound 60] | > 5 | – | 2100 | – | – | – |
| O=C(CSc1nc2ccccc2s1)Nc1ccc(C2CCCCC2)cc1 [Compound 37, 2-(Benzothiazol-2-ylsulfanyl)-N-(4-cyclohexylphenyl)-acetamide] | > 5 | – | 1700 | – | – | – |
